Measurements as given in PubChem BioAssay (NCI).
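Grown in 96-well plates, cells were treated for 48 hours with each compound at five concentrations. Insufficient inhibition: endpoint recorded as highest concentration tested. GI50 is the concentration that inhibits growth by half. The concentration for full growth arrest is given as TGI.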

Assays:
Experiment in all cases: growth of human tumour cells (NCI), 48 h
[1] = system: MDA-N
[2] = system: MDA-MB-435
[3] = system: DU-145 prostate
[4] = system: MCF7 breast
[5] = system: A498 renal
[6] = system: HS 578T breast
[7] = system: OVCAR-4 ovarian
[8] = system: PC-3 prostate
[9] = system: A549 NSCLC
[10] = system: SNB-75 CNS

SMILES | TGI [1] | TGI [2] | TGI [3] | TGI [4] | TGI [5] | TGI [6] | TGI [7] | TGI [8] | TGI [9] | TGI [10] | GI50 [3] | GI50 [4] | GI50 [5] | GI50 [6] | GI50 [7] | GI50 [10] | GI50 [8] | GI50 [2] | GI50 [9]
Nc1nc(N)c2ncn(-c3ccc(Cl)c(Cl)c3)c2n1 | > 100 µM | > 100 µM | > 100 µM | > 100 µM | 32.4 µM | 42.4 µM | > 100 µM | 82.1 µM | > 100 µM |  |  |  |  |  |  |  |  |  | 
C=C1C(=O)OC2/C=C(\C)C(=O)CC3OC(C)(C)OC3(C)CC(OC(=O)/C(C)=C/C)C12 (centres undefined) | > 80.5 µM | > 68.2 µM | 45.1 µM | > 47.1 µM | 54.4 µM | > 100 µM | 41.5 µM | 59 µM | > 100 µM | > 72.9 µM |  |  |  |  |  |  |  |  | 
C=C(C)[C@@H]1CC[C@]2(C(=O)Nc3ccccn3)CC[C@]3(C)[C@H](CC[C@@H]4[C@@]5(C)CCCNC(C)(C)[C@@H]5CC[C@]43C)[C@@H]12 |  |  | 3.42 µM | 3.07 µM | 7.96 µM | 4.42 µM | 2.99 µM | 6.2 µM |  | 5.89 µM | 1.81 µM | 1.48 µM | 2.25 µM | 1.92 µM | 1.44 µM | 1.72 µM | 1.99 µM |  | 
O=S(=O)(O)c1cc(N=Nc2cc(S(=O)(=O)O)c3ccccc3c2O)ccc1/C=C/c1ccc(N=Nc2cc(S(=O)(=O)O)c3ccccc3c2O)cc1S(=O)(=O)O | 359 µM | 258 µM | 712 µM | > 1000 µM |  | 756 µM | > 1000 µM | 986 µM | > 1000 µM | > 736 µM |  |  |  |  | > 807 µM |  |  |  | 
c1ccc(-n2cnnc2-c2nsc3ccccc23)cc1 |  |  |  |  |  |  | > 100 µM |  | > 100 µM | > 100 µM |  |  |  |  |  |  |  |  | 
C=C1CC23CCC4C(C)(C(=O)O)CCCC4(C)C2CCC1C3 (centres undefined) | > 100 µM | > 100 µM | > 100 µM | > 100 µM | > 100 µM | > 100 µM | > 100 µM | > 100 µM | > 100 µM | > 100 µM |  |  |  |  |  |  |  |  | 
O=[N+]([O-])c1ccc(/C=N\Nc2ccc([N+](=O)[O-])cn2)cc1 | > 100 µM | > 100 µM | > 100 µM | > 100 µM |  | > 100 µM | > 100 µM | > 100 µM | > 100 µM | > 100 µM |  |  |  |  |  |  |  |  | 
CCN(CC)C(=S)SC(=S)N(CC)CC | > 100 µM | > 100 µM | > 100 µM | > 100 µM | > 100 µM | > 100 µM | > 100 µM | > 100 µM | > 100 µM | 99.2 µM |  |  |  |  |  |  |  |  | 
N=C(N)c1ccc(-c2ccc(-c3cncc4ccccc34)s2)cc1F |  | 3.49 µM | 3.45 µM |  | 2.5 µM |  |  |  |  | 3.14 µM | 1.86 µM |  | 1.06 µM |  |  | 1.73 µM |  | 1.86 µM | 
O=C(/C=c1\oc(=O)/c(=C/C(=O)c2ccc(Cl)cc2)oc1=O)c1ccc(Cl)cc1 | > 100 µM | > 100 µM | > 100 µM | > 100 µM | > 100 µM | > 100 µM | > 100 µM | > 100 µM | > 100 µM |  |  |  |  |  |  |  |  |  | 
CC(C)=CCc1c(O)ccc2c1OC1c3ccc(O)c(CC=C(C)C)c3OCC21 (centres undefined) |  |  |  | 16.9 µM | 25 µM |  | 23.6 µM |  | 26.5 µM | 33.9 µM |  |  |  |  |  |  |  |  | 
C=C(C)C(=O)OC1C(C(C)CCCO)=C(CO)CC2OC(=O)C(=C)C21 (centres undefined) | 37.7 µM | 52.1 µM | 27.8 µM | 24.1 µM | 36.5 µM | > 100 µM | > 100 µM | 76.6 µM | 63.7 µM | 40.5 µM |  |  |  |  |  |  |  |  | 
COc1cc(C(C)(C)C)cc(OC)c1C(O)(c1c(OC)cc(C(C)(C)C)cc1OC)c1c(OC)cc(C(C)(C)C)cc1OC |  | 0.974 µM |  |  | 2.53 µM |  | 1.06 µM |  | 1.23 µM |  |  |  | 0.477 µM | 0.711 µM | 0.307 µM |  |  | 0.306 µM | 0.324 µM
C=C(C)C1CC2=C(O1)C(=O)c1ccccc1C2=O (centres undefined) |  |  |  |  |  |  | 24 µM |  | 42.3 µM | 31.8 µM |  |  |  |  |  |  |  |  | 
